Experimental data as given in BindingDB's records for doi:10.1016/j.bmcl.2009.12.085 (Bristol-Myers Squibb Pharmaceutical Research and Development, 2010).

Target: Potassium voltage-gated channel subfamily A member 5 (Homo sapiens, UniProt P22460)
Test: Inhibition of human Kv1.5 channel expressed in mouse L929 cells

Potassium voltage-gated channel subfamily A member 5, sequence (P22460 whole entry): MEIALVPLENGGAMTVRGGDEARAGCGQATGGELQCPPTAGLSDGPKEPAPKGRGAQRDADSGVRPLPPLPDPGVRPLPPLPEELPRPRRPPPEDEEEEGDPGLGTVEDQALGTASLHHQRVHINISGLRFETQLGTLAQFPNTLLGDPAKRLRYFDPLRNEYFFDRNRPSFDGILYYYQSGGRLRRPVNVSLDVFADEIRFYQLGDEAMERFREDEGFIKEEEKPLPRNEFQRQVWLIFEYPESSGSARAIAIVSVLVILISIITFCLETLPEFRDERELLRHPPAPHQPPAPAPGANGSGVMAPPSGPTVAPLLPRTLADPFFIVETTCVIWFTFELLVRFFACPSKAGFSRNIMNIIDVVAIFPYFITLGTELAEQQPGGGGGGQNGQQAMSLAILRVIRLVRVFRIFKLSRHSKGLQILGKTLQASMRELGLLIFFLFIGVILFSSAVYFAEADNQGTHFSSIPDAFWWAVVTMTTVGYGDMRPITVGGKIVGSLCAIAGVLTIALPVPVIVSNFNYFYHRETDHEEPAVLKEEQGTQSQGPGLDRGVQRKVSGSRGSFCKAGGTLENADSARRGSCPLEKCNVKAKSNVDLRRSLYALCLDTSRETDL

Compound | IC50 [nM]
CC1=Nc2ccnn2C(c2ccc(Cl)c(Cl)c2)C1C(=O)N1CCC[C@H]1c1n[nH]c(=O)n1C (stereo partly drawn) [3-((2S)-1-(7-(3,4-dichlorophenyl)-5-methyl-4,7-dihydropyrazolo[1,5-a]pyrimidine-6-carbonyl)pyrrolidin-2-yl)-4-methyl-1H-1,2,4-triazol-5(4H)-one] | > 1000
CC1=Nc2ccnn2C(c2ccc(Cl)c(Cl)c2)C1C(=O)N1CCCC1c1ccccn1 (centres undefined) [(7-(3,4-dichlorophenyl)-5-methyl-4,7-dihydropyrazolo[1,5-a]pyrimidin-6-yl)(2-(pyridin-2-yl)pyrrolidin-1-yl)methanone] | 660
CC1=Nc2ccnn2C(c2ccc(Cl)c(Cl)c2)C1C(=O)N1CCCC1c1ccccc1 (centres undefined) [(7-(3,4-dichlorophenyl)-5-methyl-4,7-dihydropyrazolo[1,5-a]pyrimidin-6-yl)(2-phenylpyrrolidin-1-yl)methanone] | 150
CC1=Nc2ccnn2C(c2ccc(Cl)c(Cl)c2)C1C(=O)N1CCC[C@H]1c1nnc[nH]1 (stereo partly drawn) [((S)-2-(4H-1,2,4-triazol-3-yl)pyrrolidin-1-yl)(7-(3,4-dichlorophenyl)-5-methyl-4,7-dihydropyrazolo[1,5-a]pyrimidin-6-yl)methanone] | > 1000
CC1=Nc2ccnn2C(c2ccc(Cl)c(Cl)c2)C1C(=O)N1CCC[C@H]1c1nnc(N)s1 (stereo partly drawn) [((S)-2-(5-amino-1,3,4-thiadiazol-2-yl)pyrrolidin-1-yl)(7-(3,4-dichlorophenyl)-5-methyl-4,7-dihydropyrazolo[1,5-a]pyrimidin-6-yl)methanone] | > 1000

Other lines, results leading:

IC50 [nM] | Compound
150 | COC(=O)[C@@H]1CCCN1C(=O)C1C(C)=Nc2ccnn2C1c1ccc(Cl)c(Cl)c1 (stereo partly drawn) [(2S)-methyl 1-(7-(3,4-dichlorophenyl)-5-methyl-4,7-dihydropyrazolo[1,5-a]pyrimidine-6-carbonyl)pyrrolidine-2-carboxylate]
70 | CC1=Nc2ccnn2C(c2ccc(Cl)c(Cl)c2)C1C(=O)N1CCCC1c1ccc(F)cc1 (centres undefined) [(7-(3,4-dichlorophenyl)-5-methyl-4,7-dihydropyrazolo[1,5-a]pyrimidin-6-yl)(2-(4-fluorophenyl)pyrrolidin-1-yl)methanone]
> 1000 | CC1=Nc2ccnn2C(c2ccc(Cl)c(Cl)c2)C1C(=O)N1CCCC1c1cccnc1 (centres undefined) [(7-(3,4-dichlorophenyl)-5-methyl-4,7-dihydropyrazolo[1,5-a]pyrimidin-6-yl)(2-(pyridin-3-yl)pyrrolidin-1-yl)methanone]
> 1000 | CC1=Nc2ccnn2C(c2ccc(Cl)c(Cl)c2)C1C(=O)N1CCC[C@H]1c1nnn[nH]1 (stereo partly drawn) [((S)-2-(1H-tetrazol-5-yl)pyrrolidin-1-yl)(7-(3,4-dichlorophenyl)-5-methyl-4,7-dihydropyrazolo[1,5-a]pyrimidin-6-yl)methanone]
